Results on seven compounds are retold here after patent publication US20220325239A1, “CELL CULTURE” (AGENCY FOR SCIENCE, TECHNOLOGY AND RESEARCH, priority 2019, published 2022).

One data set concerns FINE cells. Put plainly: Withdrawal or replacement of AZD5438 / Dasatinib in FINE culture. The data set is classed as cell-based, human. Particulars: for sustaining feeder-free naïve hESCs when replacing Dasatinib in FINE: 2 passages; for morphology after withdrawal from FINE: withdrawal for 3 passages. The text has this: FIG. 4A is a diagram showing brightfield and immunofluorescence staining of KLF4, TFE3 and KLF17 in FINE culture after withdrawal of AZD, Dasa or both for 3 passages. Scale bar=50 μm.
FIG. 4B is a diagram showing quantification of fraction of nuclei positive for naïve-associated transcription factors in hESCs cultured in FINE after withdrawal of AZD, Dasa or both for 3 passages. Mean±SD of three independent experiments.
FIG. 4C is a diagram showing expression of blastocyst-associated transcripts in hESCs cultured in FINE after withdrawal of AZD, Dasa or both for 2 passages. Mean±SD of three independent qPCR experiments.
FIG. 4D and FIG. 4E are diagrams showing expression of blastocyst-associated transcripts in hESCs cultured in FINE after (D) replacement of Dasa with other Src and Bcr-Abl inhibitors or (E) replacement of AZD with Dinaciclib (in H9 line) for 2 passages. Mean±SD of three independent qPCR experiments.
Therefore, we wanted to test if both are also important for the maintenance of naivety in FINE.

A further data set relates to hESC. Put plainly: Adaptation and survival of feeder-free hESCs in 4iLA supplemented with chemical combinations (C1-C21). The data set is classed as cell-based, human. Particulars: condition 19 background. The text has this:
FIG. 2C is a diagram showing relative survival of hESC culture under 4 iLA supplemented with different chemical combinations conditions (C1-C21) over 9 passages without feeders. 4 iLA was included as control.
We next sought to find a condition that enables stable naïve culture by adapting feeder-free primed hESCs onto media supplemented by one or more of the hits at various concentrations (FIG. 2C, Table E2, below).

The test system of a further data set is naïve hESCs. The data set is described as follows: Naïve pluripotency marker expression after short-term supplementation of hits upon feeder withdrawal (qPCR). The data set is classed as cell-based, human. The source says:
3iL and 4 iLA media were supplemented with small molecule compounds at various concentrations for single and combinatory treatments. Small molecules used in the study: Dasatinib (Selleckchem), AZD5438 (TOCRIS), CHIR-98014 (Sigma), Crenolanib (Selleckchem), Saracatinib (Selleckchem), Src Inhibitor-1 (Sigma), Nilotinib (STEMCELL Technologies), Imatinib (STEMCELL Technologies), Dinaciclib (Selleckchem), WH-4-023 (Sigma).
(§1) Total RNA was extracted using TRIzol reagent (Invitrogen) according to manufacturer's protocol followed by DNAase I treatment (Ambion).
(§2) 250-1000 ng of DNAase treated RNA was reverse transcribed using SuperScript II (Invitrogen) and oligo-dT primers (Invitrogen) according to manufacturer's instructions. Reactions were performed in final volume of 20μ1. cDNA was diluted before qPCR analysis.
qPCR was performed using KAPA SYBR FAST master mix (KAPA Biosystem) following standard procedures. qPCR reactions were performed in biological duplicates or triplicates in 384-well plates on the ViiA™ 7 Real-Time PCR System (Life Technologies). Two technical replicates were carried out for each qPCR reaction and data was normalised to GAPDH. The relative abundance of transcripts was calculated using ΔΔC(T) method. […]

The test system of data set [1] is LTR7Y-zsGreen reporter cells. Put plainly: High-throughput small molecule screen for feeder-free maintenance of naïve hESCs (LTR7Y-zsGreen fluorescence). Particulars: 3iL without feeders. The data set is classed as cell-based, human. On the procedure:
3,000 cells cultured in mTeSR1 (STEMCELL Technologies) or 3iL were seeded per well into 384-well plates (Greiner) coated with 30× Matrigel (Corning) or 30× growth factor reduced Matrigel (Corning) in 45 µl of medium. 4 hours after seeding, cells were treated with anti-cancer and anti-kinase libraries (Selleckchem; kinase inhibitor screening library—customised collection of 273 kinase inhibitors, anti-cancer compound library—customized collection of 349 bioactive compounds). Small molecules were used at 3 different concentrations: 100 nM, 1 μM and 10 μM for each condition. 48 hours after the treatment, culture media was renewed concomitant with a second round of treatment with the compounds. […] Images were processed and fluorescence signal was quantified using Columbus Image Data Storage and Analysis System (PerkinElmer). […] Z-score for zsGreen fluorescence was calculated using formula: z=(X−μ)/s.d. where μ—mean, s.d.—standard deviation of whole population, X−integrated intensity of zsGreen divided by total number of cells. […]
We first ensured the quality of the screen by certifying the absence of intra-plate layout biases (FIG. 8I), proper inter-plate alignment (FIG. 8J) and good correlation between replicates (FIG. 8K). Z-scores were then calculated, and compounds that reproducibly scored above noise (z>2 in at least 2 replicates) were regarded as hits (FIG. 1B, S1L). […]

The subject of a further data set is hESCs. The data set is described as follows: Expression of naïve / blastocyst / 8-cell markers under culture conditions (qPCR, immunofluorescence). The data set is classed as cell-based, human. Particulars: PD0325901 reduced from 1 μM to 0.3 μM, H9. On the procedure:
as §1, §2
qPCR was performed using KAPA SYBR FAST master mix (KAPA Biosystem) following standard procedures. qPCR reactions were performed in biological duplicates or triplicates in 384-well plates on the ViiA™ 7 Real-Time PCR System (Life Technologies). Two technical replicates were carried out for each qPCR reaction and data was normalised to GAPDH. The relative abundance of transcripts was calculated using ΔΔC(T) method.
Before fixation with 4% formaldehyde (Sigma) cells were washed with PBS (Gibco) in tissue culture plates (Falcon) for 30 minutes at room temperature. Permeabilization was performed with 1% of Triton-X 100 in PBS followed by blocking step performed in blocking buffer (blocking buffer—8% FBS in PBS-T (PBS-T 1% Tween in PBS)) each for 30 minutes at room temperature. Cells were incubated with primary antibodies, diluted in blocking buffer, overnight at 4° C. with gentle agitation. […]

A further data set relates to H9 cells. Put plainly: Karyotyping / cytogenetic analysis. The data set is classed as cell-based, human. Particulars: PD0325901 reduced from 1 μM to 0.3 μM. On the procedure: FIG. 7B is a diagram showing summary of cytogenetic analysis of H9 cells (top) under various naïve culture conditions (rows) and passage numbers (columns). Representative karyotypes at various passage numbers in FINE (bottom).
Various hESCs lines were seeded into glass cover slip slides as single cells. Karyotyping service including colcemid treatment and G-band analysis was outsourced with Parkway Laboratory Services.

The subject of the next data set is human cancer cultures. Particulars: broad spectrum of human cancer cultures; cited from earlier work.
In a further data set the test system is cellular CDK substrates. Particulars: cited from earlier work.
For a further data set, the system named is human tumor xenograft. Particulars: oral, 50 mg/kg/12 h or 75 mg/kg/day, mice; cited from earlier work.

Consider `Cc1ccc(NC(=O)c2ccc(CN3CCN(C)CC3)cc2)cc1Nc1nccc(-c2cccnc2)n1` [Imatinib], for which the “sustaining feeder-free naïve hESCs when replacing Dasatinib in FINE” value (shortened to “sustaining feeder-free naïve hESCs”) in the data set on FINE cells is reported as “failed to sustain”.

On to `COc1ccc(N(C(=O)Oc2c(C)cccc2C)c2ccnc(Nc3ccc(N4CCN(C)CC4)cc3)n2)c(OC)c1` [WH-4-023], for which the “sustaining feeder-free naïve hESCs” value in the data set on FINE cells is on record as “failed to sustain”. For the same compound, in the data set with hESC, the “requirement for adaptation and maintenance of feeder-free naïve cells” value is on record as “dispensable”.

Turning to `Cc1cn(-c2cc(NC(=O)c3ccc(C)c(Nc4nccc(-c5cccnc5)n4)c3)cc(C(F)(F)F)c2)cn1` [Nilotinib], the “sustaining feeder-free naïve hESCs” value in the data set on FINE cells is reported as “failed to sustain”.

Turning to `Cc1nc(Nc2ncc(C(=O)Nc3c(C)cccc3Cl)s2)cc(N2CCN(CCO)CC2)n1.O` [Dasatinib, N-(2-chloro-6-methylphenyl)-2-[[6-[4-(2-hydroxyethyl)-1-piperazinyl]-2-methyl-4-pyrimidinyl]amino]-5-thiazole carboxamide monohydrate], the “effect on downregulation of naïve pluripotency markers” value in the data set with naïve hESCs (4iLA, RNA after 12 days) is “had the same effect”. Moreover, the “outcome of the screen (hit)” value in data set [1] was “identified novel regulators of naïve pluripotency”. Moreover, the “loss of naivety upon withdrawal from FINE” value with FINE cells (compared with AZD5438 withdrawal) is “more pronounced effect”. Further, the “morphology after withdrawal from FINE” value with FINE cells was “caused dispersal of the compact morphology”.

Regarding `O=C(NOC[C@H](O)CO)c1ccc(F)c(F)c1Nc1ccc(I)cc1F` [PD0325901, N-[(2R)-2,3-dihydroxypropoxy]-3,4-difluoro-2-(2-fluoro-4-iodoanilino)benzamide], the “effect of lowered concentration in FINE on naïve pluripotent marker expression” value in the data set on hESCs is recorded as “slight adverse effect”. Besides, the “effect of lowered concentration in FINE on acquisition of chromosomal abnormalities” value in the data set with H9 cells is recorded as “further delayed acquisition of chromosomal abnormalities”.

`COc1cc2ncnc(Nc3ccc(Oc4ccccc4)cc3)c2cc1OC` [SRCi]: the “sustaining feeder-free naïve hESCs” value in the data set on FINE cells is “failed to sustain”.

As for `Cc1ncc(-c2ccnc(Nc3ccc(S(C)(=O)=O)cc3)n2)n1C(C)C` [AZD5438, 4-[2-Methyl-1-(1-methylethyl)-1H-imidazol-5-yl]-N-[4-(methylsulfonyl)phenyl]-2-pyrimidinamine], the antiproliferation activity entry in the data set with human cancer cultures is “displays antiproliferation activity”. Moreover, in the data set on naïve hESCs (3iL, RNA after 6 days), the “effect on downregulation of naïve pluripotency markers including LTR7Y” value is given as “consistently attenuated downregulation”. Moreover, the “inhibition of cellular CDK substrates phosphorylation” value with cellular CDK substrates is “effectively inhibits”. Also, the “outcome of the screen (hit)” value in data set [1] was “identified novel regulators of naïve pluripotency”. In addition, in the data set with FINE cells, the “morphology after withdrawal from FINE” value is “caused dispersal of the compact morphology”. In addition, the “efficacy against human tumor xenograft growth” value in the data set with human tumor xenograft is “efficacious”.
